Converted amounts (≈) assume the structure as drawn.
What was measured:
Type in all cases: functional, cell-based
MT4 = experiment: In vitro evaluation of antiviral activity against HSV-1 (Herpes simplex virus-1) induced cytopathic effect in MT-4 cells by indirect immunofluorescence assay; conditions: Homo sapiens
Vero [1] = experiment: In vitro evaluation of antiviral activity against HSV-1 (Herpes simplex virus-1) induced cytopathic effect in vero cells by a plaque reduction assay; conditions: Chlorocebus sabaeus
Vero [2] = experiment: In vitro evaluation of antiviral activity against HSV-2 (Herpes simplex virus-2) induced cytopathic effect in vero cells by a plaque reduction assay; conditions: Chlorocebus sabaeus
Vero [3] = experiment: Compound was evaluated for cytotoxicity against vero cells up to a concentration of 100 ug/mL; non toxic; conditions: Chlorocebus sabaeus

SMILES	EC50 (MT4)	EC50 (Vero [1])	EC50 (Vero [2])	Activity (Vero [3])
O=c1[nH]cnc2c1ncn2[C@H]1CC[C@@H](CO)O1 [DIDANOSINE]	0.46 µg/mL (≈ 1.95 µM)	–	–	–
Nc1nc2c(ncn2COCCO)c(=O)[nH]1 [ACYCLOVIR]	–	0.32 µg/mL (≈ 1.42 µM)	0.39 µg/mL (≈ 1.73 µM)	–
Nc1nc(O)c2ncn(N3CC(CO)C3CO)c2n1 (configuration not stated)	0.46 µg/mL (≈ 1.73 µM)	5.36 µg/mL (≈ 20.1 µM)	6.32 µg/mL (≈ 23.7 µM)	Not toxic
Cc1cn([C@H]2C[C@H](N=[N+]=[N-])[C@@H](CO)O2)c(=O)[nH]c1=O [ZIDOVUDINE]	0.0032 µg/mL (≈ 0.012 µM)	–	–	–
Nc1ncnc2c1ncn2N1CC(CO)C1CO (configuration not stated)	0.37 µg/mL (≈ 1.48 µM)	33.2 µg/mL (≈ 133 µM)	34.9 µg/mL (≈ 139 µM)	Not toxic

Source: ChEMBL document CHEMBL1151604, “Enantiomerically pure synthesis and antiviral evaluation of [(2S, 3S)-bis(hydroxymethyl)azetidin-1-yl] purine nucleosides: Analogs of oxetanocin-A” (Bioorg Med Chem Lett, 1995)
